# From BindingDB's records for doi:10.1016/j.bmc.2009.08.051 (Kyoto Prefectural University, 2009)
# What was measured:
# DNA polymerase = DNA polymerase (Bos taurus, UniProt A0AAA9TD94); assay: DNA Polymerase Assay; conditions: pH 7.5; 37 °C
# Protocol: (§1) For the DNA polymerase reaction, the dehydroaltenusin derivative was dissolved in dimethyl sulfoxide (DMSO) at various concentrations and sonicated for 30 s. Four microlitres of each sonicated sample were mixed with 16 uL of enzyme (final 0.05 units) in reaction buffer, and kept at 0 deg C for 10 min. These inhibitor-enzyme mixtures were added to 16 uL of each enzyme standard reaction mixture containing DNA template-primer and nucleotide, and incubated at 37 deg C for 60 min. Activity without the inhibitor was considered 100%, and the remaining activity at each concentration of the inhibitor was determined relative to this value. One unit of pol activity was defined as the amount of enzyme that catalyzed the incorporation of 1 nmol of dNTP (i.e., dTTP) into synthetic DNA template-primer in 60 min at 37 deg C under the normal reaction conditions.
# DNA polymerase beta = DNA polymerase beta (Rattus norvegicus, UniProt P06766); assay: DNA Polymerase Assay; conditions: pH 7.5; 37 °C
# Protocol: as §1
Compound,IC50 (DNA polymerase) [nM],IC50 (DNA polymerase beta) [µM]
"COc1cc(O)c2c(=O)oc3cc(O)c(O)cc3c2c1 [dehydroaltenusin derivative, 26]",> 200000,> 200
"CCCOc1cc(O)c2c(c1)C1=CC(=O)C(=O)CC1(C)OC2=O (stereo not given) [dehydroaltenusin derivative, 14]",180,35
"CC12CC(=O)C(=O)C=C1c1cc(O)cc(O)c1C(=O)O2 (stereo not given) [desmethyldehydroaltenusin, 2]",890,126
"COc1cc(O)c2c(c1)C1=CC(=O)C=CC1(C)OC2=O (stereo not given) [dehydroaltenusin derivative, 31]",> 200000,> 200
"CC12CC(=O)C(=O)C=C1c1cccc(O)c1C(=O)O2 (stereo not given) [dehydroaltenusin derivative, 20]",240,89
"CC12C=CC(=O)C=C1c1cccc(O)c1C(=O)O2 (stereo not given) [dehydroaltenusin derivative, 32]",> 200000,> 200
"CCCCCCOc1cc(O)c2c(c1)C1=CC(=O)C(=O)CC1(C)OC2=O (stereo not given) [dehydroaltenusin derivative, 15]",90,24
"CCCCCCCCCCCCOc1cc(O)c2c(c1)C1=CC(=O)C(=O)CC1(C)OC2=O (stereo not given) [dehydroaltenusin derivative, 16]",60,11
"COc1cc(O)c2c(=O)oc3cc(OCc4ccccc4)c(OCc4ccccc4)cc3c2c1 [dehydroaltenusin derivative, 25]",> 200000,> 200
COc1cc(O)c2c(c1)C1=CC(=O)C(=O)CC1(C)OC2=O (stereo not given) [dehydroaltenusin],680,64
